Measurements taken from US20090088380A1, “GHRH ANALOGS AND THERAPEUTIC USES THEREOF” (priority 2007, published 2009).
Values joined by “and” are separate entries in the source; they are usually repeats but may differ in a detail not shown here. Equal values may be shown once. Non-standard residues stand in square brackets, D forms with d. Residues, ends and D or L forms follow the SMILES beside them.

Experiments:
[1] = test system: malnourished subjects with CKD; test: Phase II CKD: abnormal and clinically significant clinical chemistry and blood gas values; type: in vivo, human; conditions: for Subjects with abnormal and clinically significant ALT (%) / Subjects with abnormal and clinically significant AST (%) / Subjects with abnormal and clinically significant Calcium (%) / Subjects with abnormal and clinically significant Chloride (%) / Subjects with abnormal and clinically significant Creatinine (%) / Subjects with abnormal and clinically significant GGT (%) / Subjects with abnormal and clinically significant Phosphate (%) / Subjects with abnormal and clinically significant Potassium (%) / Subjects with abnormal and clinically significant Sodium (%) / Subjects with abnormal and clinically significant Urea (%): safety analysis set
Description: The number of subjects with abnormal and clinically significant laboratory values at baseline and at Day 28 is presented in Table 35 (haematology) and Table 36 clinical chemistry. Overall, the number of subjects with abnormal and clinically significant laboratory values was similar in the GHRH(1-29)NH2 synthetic analog and placebo groups. No clear trends were observed.

[2] = In vitro proteolysis assay in human serum; type: in vitro ADME
Experimental: (§1) Proteolysis was stopped by adding 800 μl of ice-cold stop buffer (potassium-phosphate buffer, acidified to pH 0.8 with trifluoroacetic acid (TFA) and boiling 5 min (rat serum only). After centrifugation (12000 g, 5 min, 4° C.) (rat serum only), serum-peptide mixtures were passed through a conditioned Sep-Pak C-18 cartridge to extract native GHRH or a GHRH analog residual concentrations from serum proteins. The native GHRH or the analog was eluted in 2 ml of 50% acetonitrile-0.01% TFA/50% 0.01% aqueous TFA. 200 μl of extracted peptide, representing 1 μg of GHRH or analog at time 0, was quantified by analytical HPLC, using one μ-Bondapak C18 column (10 μm particle size, 0.39×15 cm) (rat serum) or two C18 columns in series (human serum and plasma) and a binary solvent system composed of NaClO4 0.01 M, pH 2.5 and acetonitrile. A linear gradient from 30 to 60% acetonitrile over 45 min (rat serum) or 30 to 50% (human serum and plasma) was used. Elution of intact peptide was monitored at 214 nm and residual concentration determined by assessment of peak surface areas.

[3] = In vitro proteolysis assay in rat serum; type: in vitro ADME
Experimental: as §1

human GHRH receptor = molecular target: T1, human GHRH receptor (Homo sapiens, UniProt Q02643); test: 125I-GHRH competitive binding assay in BHK cell membrane preparations; conditions: in comparison with hGHRH(1-29)NH2, ratio IC50 hGHRH(1-29)-NH2/IC50 analog
T1 construct: expressed in transfected cells; host or cells: BHK (baby hamster kidney) 570 cells, membrane preparations
T1 sequence (Q02643 23-423): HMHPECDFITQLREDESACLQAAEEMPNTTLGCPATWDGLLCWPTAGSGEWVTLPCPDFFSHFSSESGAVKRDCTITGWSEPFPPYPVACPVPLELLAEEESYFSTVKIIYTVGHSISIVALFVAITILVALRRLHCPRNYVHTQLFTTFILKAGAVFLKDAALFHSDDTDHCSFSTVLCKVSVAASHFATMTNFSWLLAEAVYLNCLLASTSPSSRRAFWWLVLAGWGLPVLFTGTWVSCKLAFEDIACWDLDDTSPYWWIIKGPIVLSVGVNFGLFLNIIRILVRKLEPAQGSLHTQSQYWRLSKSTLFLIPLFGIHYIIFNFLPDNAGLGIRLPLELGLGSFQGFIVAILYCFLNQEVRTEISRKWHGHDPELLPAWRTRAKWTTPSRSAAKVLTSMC
Experimental: Non specific binding was determined in presence of 1 μM hGHRH(1-29)NH2. Incubation was carried out at equilibrium (23° C., 60 min) and stopped by centrifugation (12,000 g, 5 min, at 4° C.). The radioactivity content in pellets was determined by gamma counting. The affinity of hGHRH(1-29) NH2 was tested in each experiment to assess the validity of the assay and determine the relative affinity of the analogs.
Values represent the mean±SEM of 3 experiments performed in triplicate for the analogs and the mean±SEM of 2 experiments performed in triplicate for hGHRH(1-44) NH2.
For the binding assay results presented in Tables 8 to 11, values represent the mean±SEM of 8 independent experiments performed in triplicate for the analogs and the mean±SEM of 4 experiments performed in triplicate for hGHRH(1-29)NH2. […] The relative affinity was obtained by taking the ratio IC50 of hGHRH (1-29)-NH2/IC50 analog.

Leptin and adiponectin = test: Phase II CKD: fat regulation (leptin, adiponectin); type: in vivo, human
Experimental: Leptin (ng/mL) and adiponectin (μg/mL) were measured at every visit from baseline to Day 28 as markers for regulating metabolism. Samples were analysed at the Department of Nephrology, Endocrinology and Metabolic Diseases, Silesian University School of Medicine, Katowice.

[4] = test system: malnourished subjects with CKD; test: Phase II CKD: Subjective Global Assessment (SGA); type: in vivo, human; conditions: for SGA mild to moderately malnourished: (%) / SGA mild to moderately malnourished: n / SGA severely malnourished: (%) / SGA severely malnourished: n / SGA well nourished: (%) / SGA well nourished: n: ITT
Description: An SGA was an overall evaluation of a subject by an experienced clinician that correlated with the subjective and objective aspects of a medical history and physical examination. An SGA was completed at both the screening and baseline visits, on Day 28 and at the follow-up visit. Review of the medical history included an assessment of weight and weight change, dietary intake, gastrointestinal symptoms, disease state, and the subject's functional status. The SGA also included a physical examination for negative changes in body composition such as loss of subcutaneous fat or muscle wasting, and signs of oedema or ascites (nutrition-related). After evaluation, the subject was classified as well nourished (A), mild to moderately malnourished (B), or severely malnourished (C).

[5] = test system: malnourished subjects with CKD; test: Phase II CKD: dietary assessment (spontaneous nutrient intake); type: in vivo, human; conditions: ITT
Experimental: Dietary assessments were performed at the baseline visit and were repeated on Day 28. The subjects were asked to write down everything they ate and drank throughout the 3 days preceding the visit. The local dietician then calculated the mean amount of carbohydrates, fat and protein consumed by the subjects per day and calculated energy intake.

[6] = Baseline, listed as GHRH(1-29)NH2 synthetic analog
[7] = Day 28, listed as GHRH(1-29)NH2 synthetic analog

## CC[C@H](C)[C@H](NC(=O)[C@H](C)NC(=O)[C@H](CC(=O)O)NC(=O)[C@@H](C)NC(=O)[C@@H](N)Cc1ccc(O)cc1)C(=O)N[C@@H](Cc1ccccc1)C(=O)N[C@H](C(=O)N[C@@H](CC(N)=O)C(=O)N[C@@H](CO)C(=O)N[C@H](Cc1ccc(O)cc1)C(=O)N[C@@H](CCCNC(=N)N)C(=O)N[C@@H](CCCCN)C(=O)N[C@H](C(=O)N[C@@H](CC(C)C)C(=O)N[C@H](C)C(=O)N[C@@H](CCC(N)=O)C(=O)N[C@@H](CC(C)C)C(=O)N[C@@H](CO)C(=O)N[C@@H](C)C(=O)N[C@@H](CCCNC(=N)N)C(=O)N[C@@H](CCCCN)C(=O)N[C@@H](CCCCN)C(=O)N[C@@H](CC(C)C)C(=O)N[C@@H](CCC(N)=O)C(=O)N[C@@H](CC(=O)O)C(=O)N[C@H](C(=O)N[C@@H](CCSC)C(=O)N[C@@H](CO)C(=O)N[C@@H](CCCNC(=N)N)C(N)=O)[C@@H](C)CC)C(C)C)[C@@H](C)O [GHRH analog #5, [D-Ala^2, D-Tyr^10, D-Ala^15, Lys^22] hGHRH(1-29)-NH2] (H-Y[dA]DAIFTNS[dY]RKVL[dA]QLSARKKLQDIMSR-NH2)
[1]; Baseline
  Subjects with abnormal and clinically significant ALT (%): (0.0%)
  Subjects with abnormal and clinically significant AST (%): (0.0%)
  Subjects with abnormal and clinically significant Calcium (%): (0.0%)
  Subjects with abnormal and clinically significant Chloride (%): (0.0%)
  Subjects with abnormal and clinically significant Creatinine (%): (100.0%)
  Subjects with abnormal and clinically significant GGT (%): (0.0%)
  Subjects with abnormal and clinically significant Phosphate (%): (7.7%)
  Subjects with abnormal and clinically significant Potassium (%): (30.8%)
  Subjects with abnormal and clinically significant Sodium (%): (0.0%)
  Subjects with abnormal and clinically significant Urea (%): (100.0%)
[1]; Day 28
  Number of subjects with abnormal and clinically significant bicarbonate: 3 subjects
  Number of subjects with abnormal and clinically significant calcium: 3 subjects
  Subjects with abnormal and clinically significant ALT (%): (8.3%)
  Subjects with abnormal and clinically significant AST (%): (8.3%)
  Subjects with abnormal and clinically significant Calcium (%): (25.0%)
  Subjects with abnormal and clinically significant Chloride (%): (0.0%)
  Subjects with abnormal and clinically significant Creatinine (%): (100.0%)
  Subjects with abnormal and clinically significant GGT (%): (8.3%)
  Subjects with abnormal and clinically significant Phosphate (%): (16.7%)
  Subjects with abnormal and clinically significant Potassium (%): (25.0%)
  Subjects with abnormal and clinically significant Sodium (%): (0.0%)
  Subjects with abnormal and clinically significant Urea (%): (100.0%)
[1]; baseline
  Number of subjects with abnormal and clinically significant bicarbonate: 2 subjects
  Number of subjects with abnormal and clinically significant calcium: none
[2]; 60-min incubation in human serum
  R2 (60 min): 1.55 ± 0.04
[2]; 180-min incubation in human serum
  R2 (180 min): 2.93 ± 0.87
[2]; human serum, IT 0 min
  Mean residual amount (%): 100%
[3]; compared to hGHRH(1-29)-NH2
  Relative resistance to proteolysis in vitro: 3.13
[3]; incubation 0 min
  Residual concentration (% of initial concentration): 100 ± 0 % of initial concentration
Human GHRH receptor; listed as 5
  Relative binding affinity (R1) in hGHRH-R BHK-expressing cells: 939 ± 249
Human GHRH receptor; listed as GHRH analog # 5
  Relative binding affinity (R1) in hGHRH-R BHK-expressing cells: 939 ± 249
Human GHRH receptor; listed as GHRH(1-29)NH2 synthetic analog
  Relative binding affinity (R1) in hGHRH-R BHK-expressing cells: 939
Leptin and adiponectin; ITT, Baseline
  Adiponectin: median (95% CI): 20604 ng/mL
  Leptin: mean (SD): 23.80 (34.29) ng/mL
Leptin and adiponectin; ITT, Day 7
  Adiponectin: median (95% CI): 21293 (14535; 27438) ng/mL
Leptin and adiponectin; ITT, Day 14
  Adiponectin: median (95% CI): 21548 (15810; 27030) ng/mL
Leptin and adiponectin; ITT, Day 21
  Adiponectin: median (95% CI): 21905 (15810; 31365) ng/mL
Leptin and adiponectin; ITT, Day 28
  Adiponectin: median (95% CI): 20553 (16320; 27030) ng/mL
  Leptin: mean (SD): 16.81 (21.81) ng/mL
Leptin and adiponectin; ITT, Day 28, vs placebo
  Leptin: ratio of means: 0.866
Leptin and adiponectin; day 28
  Leptin reduction from baseline, range in all but two patients: 10-70%
Leptin and adiponectin; in vivo
  Mean leptin as % of the mean in placebo group: 70%
[4]; Baseline
  SGA mild to moderately malnourished: (%): (69.2%)
  SGA mild to moderately malnourished: n: 9
  SGA severely malnourished: (%): (7.7%)
  SGA severely malnourished: n: 1
  SGA well nourished: (%): (23.1%)
  SGA well nourished: n: 3
[4]; [6]
  SGA severely malnourished: (%): 7.7%
  SGA well nourished: (%): 23.1%
[4]; Day 28
  SGA mild to moderately malnourished: (%): (16.7%)
  SGA mild to moderately malnourished: n: 2
  SGA severely malnourished: (%): (8.3%)
  SGA severely malnourished: n: 1
  SGA well nourished: (%): (75.0%)
  SGA well nourished: n: 9
[4]; [7]
  SGA well nourished: (%): 75.0%
[4]; after 28 days of therapy
  Mild to moderate malnourished patients (of 9) who became well nourished: 6
[5]; Baseline
  Energy intake: mean (SD): 1654 kcal/day and 1654.45 (394.75) kcal/day
  Protein intake: mean (SD): 62.46 g/day and 62.46 (17.71) g/day
[5]; [6]
  Energy intake: mean (SD): 1654.5 kcal/day
  Protein intake: mean (SD): 62.5 g/day
[5]; Day 28
  Energy intake: mean (SD): 1533 kcal/day and 1532.70 (384.52) kcal/day
  Protein intake: mean (SD): 58.49 g/day and 58.49 (19.76) g/day
[5]; [7]
  Energy intake: mean (SD): 1532.7 kcal/day
  Protein intake: mean (SD): 58.5 g/day
